Like-named read-outs stand apart in the source and are kept apart here.

Data set [1] concerns SJSA-1 cells. Description: Cell growth assay (WST-8), SJSA-1. Format: cell-based, human. The conditions noted are these: for IC50: Homo sapiens, SJSA-1, 96 h, 4 days.
Data set [2] has as its system HCT116 p53 WT. Description: Cell growth assay (WST-8), HCT116 p53 WT. Format: cell-based. The conditions noted are these: Homo sapiens, HCT-116, 96 h, 4 days.
Data set [3] concerns HCT116 p53 deleted (HCT116 p53−/−). Description: Cell growth assay (WST-8), HCT116 p53 deleted. In kind it is cell-based. The conditions noted are these: Homo sapiens, HCT-116, 96 h, 4 days.
Data set [4] deals with T1, recombinant human His-tagged MDM2 protein (residues 1-118) (Homo sapiens, UniProt Q00987). Nature of the data set: biochemical.
For data set [5], the target named is T1, recombinant human His-tagged MDM2 protein (residues 1-118). Description: Fluorescence-polarization MDM2 competitive binding assay. The conditions noted are these: for Ki: MDM2 (FP binding assay) Ki(nM), competitive FP.
The nature of data set [6]: Microsomal stability, rat. Format: in vitro ADME. The conditions noted are these: rat microsomes; read-out: Microsomal stability T1/2 (min) Rat.
Data set [7] has as its system SJSA-1 xenograft tumors. Nature of the data set: In vivo efficacy in SJSA-1 xenograft model. Set-up: species or system C.B-17 SCID mice. The conditions noted are these: for anti-tumor activity in mice bearing SJSA-1 xenograft tumors (in words): FIG. 2B. As to the method: In Vivo Efficacy Studies Using SJSA-Xenograft Models
SJSA-1 (osteosarcoma) tumor cells were harvested with Trypsin (0.05%)-EDTA (0.53 mM) (GIBCO™, Invitrogen Corp.), growth medium was added, and the cells were placed on ice. A cell sample was mixed 1:1 with Trypan Blue (GIBCO™, Invitrogen Corp.) and counted on a hemocytometer to determine the number of live/dead cells. Cells were washed once with 1×PBS (GIBCO™, Invitrogen Corp.) and resuspended in PBS. For Matrigel injections, after washing in PBS, cells are resuspended in an ice cold mixture of 1:1 PBS and Matrigel (BD Biosciences, Invitrogen Corp.) for a final Matrigel protein concentration of 5 mg/ml. SJSA-1 tumors were inoculated into C.B-17 SCID mice at 5×10^6 cells in 0.1 ml with Matrigel. Cells were injected s.c. into the flank region of each mouse using a 27 gauge needle.
The size of tumors growing in the mice was measured in two dimensions using calipers. Tumor volume (mm^3)=(A×B^2)/2 where A and B are the tumor length and width (in mm), respectively. During treatment, tumor volume and body weight was measured three times a week. After the treatment was stopped, tumor volume and body weight was measured at least once a week. Mice were kept for an additional 60 days for further observation of tumor growth and toxicity. The anti-tumor activity of compound No. 8 (administered via oral gavage) at different doses and according to different dosing schedules, including weekly for 3 weeks (qw*3 wks), every other day for 3 weeks, daily for 3 days out of a week for 3 weeks (qd1-3/w*3 wks), and daily for 2 weeks (qd*14 d), is shown in FIG. 3.

The subject of data set [8] is ZR-75-1. Nature of the data set: Cell growth assay (WST), ZR-75-1. Format: cell-based. The conditions noted are these: Homo sapiens, ZR-75-1, 96 h, Breast cancer, p53 wild-type, 4 days, read-out: Cell Growth Inhibition (IC50) ZR-75-1. As to the method:
Cells were seeded in 96-well flat bottom cell culture plates at a density of 2-3×10^3 cells/well with compounds and incubated for 4 days. […] 92037, USA).

A short description of data set [9]: Microsomal stability, human. The conditions noted are these: human microsomes; read-out: Microsomal stability T1/2 (min) Human. In kind it is in vitro ADME.
Data set [10] in a line: Stability of compounds in solution (UPLC). The conditions noted are these: FIG. 1; 1:1 CH3CN/H2O, 1:1 MeOH/H2O, cell culture media. In kind it is physicochemical. As for the experimental part: Stability of Compounds in Solution
The stability of the compounds were determined in 1:1 MeOH:H2O, 1:1 CH3CN:H2O, and cell culture medium using ultra performance liquid chromatography.

A short description of data set [11]: Microsomal stability, dog. Format: in vitro ADME. The conditions noted are these: dog microsomes; read-out: Microsomal stability T1/2 (min) Dog.
A short description of data set [12]: Oral pharmacokinetics in Sprague-Dawley rats. The conditions noted are these: rat, in vivo, 25 mg/kg oral.
Data set [13] in a line: Microsomal stability, mouse. In kind it is in vitro ADME. The conditions noted are these: mouse microsomes; read-out: Microsomal stability T1/2 (min) Mouse.
The subject of data set [14] is RS4; 11. Nature of the data set: Cell growth assay (WST), RS4;11. Format: cell-based. The conditions noted are these: Homo sapiens, RS4-11, 96 h, Leukemia, p53 wild-type, 4 days, read-out: Cell Growth Inhibition (IC50) RS4.
The test system of data set [15] is PC3. Nature of the data set: Cell growth assay (WST), PC3. In kind it is cell-based. The conditions noted are these: Homo sapiens, PC-3, 96 h, Prostate cancer, p53 null, 4 days, read-out: Cell Growth Inhibition (IC50) PC3.
In data set [16] the test system is Saos2. Nature of the data set: Cell growth assay (WST), Saos2. Format: cell-based. The conditions noted are these: Homo sapiens, SAOS-2, 96 h, Osteosarcoma, p53 null, 4 days, read-out: Cell Growth Inhibition (IC50) Saos2.
Data set [17] relates to LNCaP. Nature of the data set: Cell growth assay (WST), LNCaP. Format: cell-based. The conditions noted are these: Homo sapiens, 96 h, Prostate cancer, p53 wild-type, 4 days, read-out: Cell Growth Inhibition (IC50) LNCaP.
The mark [18] stands for this setting: WST-8, read-out: Cell Growth Inhibition IC50 (μM) SJSA-1.
The mark [19] stands for this setting: WST-8, read-out: Cell Growth Inhibition IC50 (μM) HCT116 p53 WT.
[20] abbreviates: WST-8, read-out: Cell Growth Inhibition IC50 (μM) HCT116 p53 deleted.
Where [21] appears, read: Osteosarcoma, p53 wild-type, WST assay, read-out: Cell Growth Inhibition (IC50) SJSA-1.
Where [22] appears, read: Colon cancer, p53 wild-type, WST assay, read-out: Cell Growth Inhibition (IC50) HCT116.
Setting [23] is: Colon cancer, p53 knock-out, WST assay, read-out: Cell Growth Inhibition (IC50) HCT116 p53−/−.

`O=C(NC12CC(C(=O)O)(C1)C2)[C@@H]1NC2(CCCCC2)[C@@]2(C(=O)Nc3cc(Cl)ccc32)[C@H]1c1cccc(Cl)c1F` [Cpd No. 1]: the “cell growth inhibition in SJSA-1 cells (in words)” value (shortened to “cell growth inhibition”) in [1] was “reduced potency”. Further, the IC50 in [1] (setting [18]) was 0.48 µM; in data set [2] (setting [19]) it was 3.7 µM; in [3] (setting [20]), 12.6 µM; in [4] it was 0.0054 µM. Besides, the “binding affinity to MDM2 (in words)” value in [5] is reported as “high binding affinity”.

Usually AUC(0-inf) stands for total exposure, with the tail of the curve extrapolated. A low value points to less exposure. In general, AUC(0-t) refers to the area under the concentration-time curve up to a stated or last time point. Read a high AUC(0-t) as more exposure. A word on the Tmax: it is the time from dosing to the highest level. For `CN1[C@@H](C(=O)NC23CCC(C(=O)O)(CC2)CC3)[C@H](c2cccc(Cl)c2F)[C@]2(C(=O)Nc3cc(Cl)ccc32)C12CCCCC2` [Cpd No. 7], the half-life was over 60 min in data set [6]; over 60 min in data set [9]; over 60 min in data set [11]; 3.89 ± 1.02 h in [12]; over 60 min in data set [13]. Besides, the “anti-tumor activity in mice bearing SJSA-1 xenograft tumors (in words)” value (from here on “anti-tumor activity”) in data set [7] is “complete and persistent tumor regression”. Further, the “binding affinity to MDM2 (in words)” value in data set [5] was “high binding affinity”. Further, the IC50 in [8] is 0.713 ± 0.165 µM. Moreover, the “stability in solutions (in words)” value in [10] was “stable in solutions”. Moreover, the total exposure AUC(0-inf) in [12] turned out to be 35.4 ± 15.5 µg·h/mL. This compound also yielded an exposure AUC(0-t) in [12] of 35.2 ± 15.2 µg·h/mL. Also, the Tmax in [12] came out at 4 h.

As usually defined, the Ki is a measure of affinity in units of concentration, obtained from inhibition or displacement. Turning to `CC1(O)CCC2(CC1)N[C@@H](C(=O)NC13CCC(C(=O)O)(CC1)CC3)[C@H](c1cccc(Cl)c1F)[C@]21C(=O)Nc2cc(Cl)ccc21` (some centres unmarked) [Cpd No. 5], the IC50 in [4] was 0.131 µM. For the same compound, in [5], the Ki stood at 30 nM.

Consider `CC1(O)CCC2(CC1)N[C@@H](C(=O)NC13CCC(C(=O)O)(CC1)CC3)[C@H](c1cccc(Cl)c1F)[C@]21C(=O)Nc2cc(Cl)ccc21` (some centres unmarked) [Cpd No. 6], for which the IC50 in [4] stood at 0.0073 µM. In addition, in data set [5], the Ki was under 1 nM.

One may read the Cmax as the peak of the concentration-time curve. With `O=C(NC12CCC(C(=O)O)(CC1)CC2)[C@@H]1NC2(CCCCC2)[C@@]2(C(=O)Nc3cc(Cl)ccc32)[C@H]1c1cccc(Cl)c1F` [Cpd No. 2], the IC50 in [14] was found to be 0.062 ± 0.026 µM; in [1] (setting [18]), 0.089 ± 0.033 µM; in data set [1] (setting [21]) it was 0.089 ± 0.033 µM; in data set [2] (setting [19]) it was 0.137 ± 0.031 µM; in data set [2] (setting [22]), 0.137 ± 0.031 µM; in [3] (setting [20]) it was 14 ± 2 µM. For the same compound, the IC50 was determined as 14 ± 2 µM in data set [3] (setting [23]); 0.0052 µM in data set [4]; 12.3 ± 2.5 µM in data set [15]; 0.677 ± 0.252 µM in [8]; 26.7 ± 5.1 µM in data set [16]; 0.036 ± 0.019 µM in data set [17]. Moreover, the half-life was over 60 min in data set [6]; over 60 min in data set [9]; over 60 min in data set [11]; 4.29 ± 0.371 h in data set [12]; over 60 min in [13]. Besides, in [1], the “cell growth inhibition” value was “potent cell growth inhibition activity”. The “anti-tumor activity” value in data set [7] is reported as “only modest anti-tumor activity”. For the same compound, the “binding affinity to MDM2 (in words)” value in data set [5] is on record as “high binding affinity”. Moreover, the AUC(0-inf) in data set [12] was 74.3 ± 5.26 µg·h/mL. The same compound had an AUC(0-t) in data set [12] of 73.6 ± 5.02 µg·h/mL. In addition, in [12], the Cmax was 8.23 ± 0.278 µg/mL. The Tmax in [12] was found to be 3.33 ± 1.15 h.

For `CS(=O)(=O)NC(=O)C12CCC(NC(=O)[C@@H]3NC4(CCCCC4)[C@@]4(C(=O)Nc5cc(Cl)ccc54)[C@H]3c3cccc(Cl)c3F)(CC1)CC2` [Cpd No. 4], the values for the IC50 in data set [1] (setting [18]) and in data set [4] were 0.373 µM and 0.0079 µM, respectively.

As for `O=C(NC12CCC(C(=O)O)(CC1)CC2)[C@@H]1NC2(CCC(F)(F)CC2)[C@@]2(C(=O)Nc3cc(Cl)ccc32)[C@H]1c1cccc(Cl)c1F` [Cpd No. 3], the IC50 is 0.165 µM in data set [1] (setting [18]) and 0.0088 µM in data set [4]. For the same compound, the inhibitory constant (Ki) in data set [5] was under 1 nM.

In the case of `CN1[C@@H](C(=O)NC23CCC(C(N)=O)(CC2)CC3)[C@H](c2cccc(Cl)c2F)[C@]2(C(=O)Nc3cc(Cl)ccc32)C12CCCCC2` [Cpd No. 9], the IC50 was 0.173 ± 0.031 µM in data set [1] (setting [18]), 0.266 ± 0.127 µM in data set [2] (setting [19]), 9 ± 1 µM in [3] (setting [20]) and 0.0052 µM in data set [4]. The inhibitory constant (Ki) in data set [5] is under 1 nM.

In the case of `CCN1[C@@H](C(=O)NC23CCC(C(=O)O)(CC2)CC3)[C@H](c2cccc(Cl)c2F)[C@]2(C(=O)Nc3cc(Cl)ccc32)C12CCCCC2` [Cpd No. 8], the half-life in [6] was over 60 min; in [9] it was over 60 min; in data set [11], over 60 min; in data set [12], 4.61 ± 1.35 h; in data set [13], over 60 min. Also, the IC50 in data set [1] (setting [18]) is 0.06 ± 0.022 µM; in data set [1] (setting [21]), 0.06 ± 0.022 µM; in data set [2] (setting [19]), 0.104 ± 0.036 µM; in data set [2] (setting [22]), 0.104 ± 0.036 µM; in [3] (setting [20]), 8 ± 1 µM; in data set [3] (setting [23]) it was 8 ± 1 µM. Besides, the IC50 in [15] amounted to 22 ± 7.2 µM; in data set [8], 0.462 ± 0.036 µM; in [16], 22.7 ± 4.7 µM; in data set [17] it was 0.018 ± 0.013 µM. In data set [7], the “anti-tumor activity” value is “complete and persistent tumor regression”. The “binding affinity to MDM2 (in words)” value in [5] is “high binding affinity”. Moreover, the “stability in solutions (in words)” value in data set [10] is listed as “stable in solutions”. The compound further came in with an AUC(0-inf) in data set [12] of 39.5 ± 8.52 µg·h/mL. The same compound had an exposure AUC(0-t) in [12] of 39.1 ± 8.47 µg·h/mL. Further, the Tmax in [12] turned out to be 4 h.

As for `O=C(O)c1ccc(NC(=O)[C@@H]2NC3(CCCCC3)[C@@]3(C(=O)Nc4cc(Cl)ccc43)[C@H]2c2cccc(Cl)c2F)cc1` [AA-MI-061, reference compound], the “cell growth inhibition” value in [1] is “potent cell growth inhibition”. In data set [7] (100 mg/kg, once, daily dosing, SCID mice bearing SJSA-1 xenografts (FIG. 2A)), this compound had a tumor regression of 90%. The “binding affinity to MDM2 (in words)” value in data set [5] is reported as “high binding affinity”.

(Values after patent publication US9745314B2, “MDM2 inhibitors and therapeutic methods using the same” (THE REGENTS OF THE UNIVERSITY OF MICHIGAN, priority 2014, dated 2017).)
